Reference: patent publication US20100041672A1, “USE OF QUINOLINE DERIVATIVES IN THE TREATMENT OF PAIN AND IRRITABLE BOWEL SYNDROME” (GLAXO GROUP LIMITED, priority 2007, published 2010)

Experiments:
[1] = test system: Random Hooded rats; test: rat joint pain model of chronic inflammatory pain (intra-articular FCA, hind paw weight bearing); type: in vivo; conditions: for Statistics for hypersensitivity data (weight bearing), significance vs vehicle, Day 13: Day 13 post FCA; for Statistics for hypersensitivity data (weight bearing), significance vs vehicle, Day 17: Day 17 post FCA; for Statistics for hypersensitivity data (weight bearing), significance vs vehicle, Day 14: Day 14 post FCA; for Statistics for hypersensitivity data (weight bearing), significance vs vehicle, Day 15: Day 15 post FCA; for Statistics for hypersensitivity data (weight bearing), significance vs vehicle, Day 16: Day 16 post FCA; for effect on hypersensitivity in the joint pain model of chronic inflammatory pain: once daily oral dosing days 13-17 post intra-articular FCA
Procedure: Random Hooded rats, 150-180 g, obtained from Charles River UK, were anaesthetised under gaseous anaesthetic and the area surrounding the left and right knee joint shaved and cleaned as for aseptic surgery. Animals were injected with 150 μl of FCA into the left knee joint (intra-articular injection). Animals were immediately allowed to recover from anaesthetic in a warmed/oxygenated environment until being returned to their home cage on paper bedding. No further post-op care was provided.
(§1) Rats were tested prior to surgery and from 18 h post FCA (minimum of once weekly) for weight bearing (g) and joint diameter (mm). Weight bearing is measured by the animal's ability to place body weight across both hind paws on a Dual Channel Weight Averager which was calibrated each day prior to use using a 10 g weight (Rat capacitance tester—Linton Instruments). Hind paw weight bearing data was calculated and expressed as the percentage of the contralateral paw.
All data were expressed as mean±s.e.m.
(§2) Prior to FCA intra-articular injection into the left knee, rats display even weight bearing. By day 1 post-insult weight bearing had shifted such that the majority of the body weight was transmitted through the contralateral limb. By day 10 this effect was maintained and at this point animals were randomised across treatment groups. Once daily dosing with vehicle, SB742457 or celecoxib began on day 13 and continued up to and including day 17.
as §1, with “100” for “10”
as §2, with “SB792988A” for “SB742457”, “17. […] AUC was calculated using Microsoft Excel.” for “17.”

[2] = test system: rats; test: FCA induced hypersensitivity rat model (intraplantar FCA, weight bearing); type: in vivo; conditions: 1 hour post dose; for weight bearing % reversal: 24 hrs after FCA; for effect on FCA induced hypersensitivity: p.o., intraplantar FCA
Procedure: (§3) Naïve weight bearing readings were taken. The hypersensitivity to pain was measured using the Rat incapacitance tester (Linton instruments). All rats (180-220 g) received an intraplantar injection of 100 ul of FCA (Freund's complete adjuvant) into the left hind paw. The FCA was sonicated for 15 minutes prior to use. 24 hrs after administration of the FCA, pre-dose weight bearing readings were taken. All animals were then ranked and randomised for dosing according to their FCA window (predose difference in grams—naïve difference in grams). Rats with FCA window less than 30 were excluded from the study.
Animals were then dosed orally with either vehicle, SB42457 (0.01, 0.1, 1 and 10 mg/kg p.o.) or celecoxib (10 mg/kg p.o.) as appropriate according to ranking and randomisation. Animals were assessed in the weight bearing apparatus 1 hour post dose.
The study was blind and randomised by FCA window using the Latin square method. % reversals were calculated by using the naïve, pre-dose and post dose values as follows: % Reversal=[(Pre-dose−Post-dose)/(Pre-dose−Naïve)]×100.
Graphs were plotted using Prism3. Statistical analysis was carried out using ANOVA and Fischer LSD test from statistical package Statistica 6.
In this study a positive control was also tested (celecoxib).
as §3, with “(200-220” for “(180-220”
Animals were then dosed orally with vehicle, SB-792988-A (0.01, 0.1, 1 and 10 mg/kg p.o.), SB-399885-A (10 mg/kg p.o.) or celecoxib (10 mg/kg p.o.) as appropriate according to ranking and randomisation. Animals were assessed in the weight bearing apparatus 1 hour post dose.
Graphs and were plotted using Prism3. Statistical analysis was carried out using ANOVA and Fischer LSD test from statistical package Statistica 6.

[3] = 0.1 mg/kg oral once daily from day 13, SB792988A study
[4] = 1 mg/kg oral once daily from day 13, SB792988A study
[5] = 3 mg/kg oral once daily from day 13, SB792988A study
[6] = 10 mg/kg oral once daily from day 13, SB792988A study
[7] = 1 mg/kg oral once daily from day 13
[8] = 10 mg/kg oral once daily from day 13

With Cl.O=S(=O)(c1cccc(F)c1)c1cnc2c(N3CCNCC3)cccc2c1 [SB792988A, 3-[(3-Fluorophenyl)sulfonyl]-8-(1-piperazinyl)quinoline Hydrochloride] the “Statistics for hypersensitivity data (weight bearing), significance vs vehicle, Day 13” value [1, 3] was “* (* = p < 0.05)”, the “Statistics for hypersensitivity data (weight bearing), significance vs vehicle, Day 17” value (from here on “Statistics … significance vs vehicle, Day 17”) [1, 3] was “* (* = p < 0.05)” and the “Statistics for hypersensitivity data (weight bearing), significance vs vehicle, Day 14” value (“Statistics … significance vs vehicle, Day 14” for short) [1, 4] was “* (* = p < 0.05)”. For the same compound, the “Statistics … significance vs vehicle, Day 17” value [1, 4] was “* (* = p < 0.05)”, the “Statistics for hypersensitivity data (weight bearing), significance vs vehicle, Day 13” value [1, 5] was “** (** = p < 0.01)” and the “Statistics for hypersensitivity data (weight bearing), significance vs vehicle, Day 15” value (“Statistics … significance vs vehicle, Day 15” for short) [1, 5] was “*** (*** = p < 0.001)”. For the same compound, the “Statistics for hypersensitivity data (weight bearing), significance vs vehicle, Day 16” value [1, 5] was “* (* = p < 0.05)”, the “Statistics … significance vs vehicle, Day 17” value [1, 5] was “*** (*** = p < 0.001)” and the “Statistics … significance vs vehicle, Day 14” value [1, 6] was “*** (*** = p < 0.001)”. For the same compound, the “Statistics … significance vs vehicle, Day 15” value [1, 6] was “*** (*** = p < 0.001)”, the “Statistics for hypersensitivity data (weight bearing), significance vs vehicle, Day 16” value [1, 6] was “*** (*** = p < 0.001)” and the “Statistics … significance vs vehicle, Day 17” value [1, 6] was “*** (*** = p < 0.001)”. For the same compound, the separation from vehicle ([1]; all doses (0.1, 1, 3, 10 mg/kg)) was “significant separation from vehicle on various days”, the “effect compared with the positive control, celecoxib” value ([1]; highest doses of 3 and 10 mg/kg vs 30 mg/kg celecoxib) was “not statistically different” and the “effect on hypersensitivity in the joint pain model of chronic inflammatory pain” value [1] was “reversed hypersensitivity”. The “weight bearing % reversal” value ([2]; 0.01 mg/kg p.o., Table 7) was 22.91 ± 4.13%, the “weight bearing % reversal” value ([2]; 0.1 mg/kg p.o., Table 7) was 22.11 ± 5.18% and the “weight bearing % reversal” value ([2]; 1 mg/kg p.o., Table 7) was 38.76 ± 5.88%. For the same compound, the “weight bearing % reversal” value ([2]; 10 mg/kg p.o., Table 7) was 67.00 ± 5.08% and the “effect on FCA induced hypersensitivity” value [2] was “dose-dependent reversal”.

O=S(=O)(c1ccccc1)c1cnc2c(N3CCNCC3)cccc2c1 [SB742457, 3-Phenylsulfonyl-8-piperazin-1-yl-quinoline] was tested, and the “Statistics … significance vs vehicle, Day 17” value ([1]; 0.1 mg/kg oral once daily from day 13) was “** (** = p < 0.01)”, the “Statistics for hypersensitivity data, significance vs vehicle, AUC” value ([1]; 1 mg/kg oral once daily days 13-17) was “*** (*** = p < 0.001)” and the “Statistics … significance vs vehicle, Day 15” value [1, 7] was “*** (*** = p < 0.001)”. For the same compound, the “Statistics … significance vs vehicle, Day 17” value [1, 7] was “*** (*** = p < 0.001)”, the “Statistics for hypersensitivity data, significance vs vehicle, AUC” value ([1]; 10 mg/kg oral once daily days 13-17) was “*** (*** = p < 0.001)” and the “Statistics … significance vs vehicle, Day 14” value [1, 8] was “** (** = p < 0.01)”. The “Statistics … significance vs vehicle, Day 15” value [1, 8] was “*** (*** = p < 0.001)”, the “Statistics … significance vs vehicle, Day 17” value [1, 8] was “*** (*** = p < 0.001)” and the separation from vehicle ([1]; all doses above and including 0.1 mg/kg) was “significant separation from vehicle on at least one day”. The “effect compared with the positive control, celecoxib” value ([1]; highest dose of 10 mg/kg vs 30 mg/kg celecoxib) was “not statistically different”, the “effect on hypersensitivity in the joint pain model of chronic inflammatory pain” value [1] was “reversed hypersensitivity” and the “weight bearing % reversal” value ([2]; 0.01 mg/kg p.o., Table 5) was 27.68 ± 6.39%. For the same compound, the “weight bearing % reversal” value ([2]; 0.1 mg/kg p.o., Table 5) was 53.09 ± 5.68%, the “weight bearing % reversal” value ([2]; 1 mg/kg p.o., Table 5) was 60.17 ± 6.73% and the “weight bearing % reversal” value ([2]; 10 mg/kg p.o., Table 5) was 76.97 ± 7.17%. The “effect on FCA induced hypersensitivity” value [2] was “dose-dependent reversal”.
